The values below are quoted from earlier work in US9974867B2, “Cytotoxic benzodiazepine derivatives” (priority 2014, dated 2018).

The conditions of the data set: Phase I clinical evaluation; cited from earlier work.

As for `C=C1C[C@H]2C=Nc3cc(OCCCOc4cc5c(cc4OC)C(=O)N4CC(=C)C[C@H]4C=N5)c(OC)cc3C(=O)N2C1` [SJG-136], the maximum tolerated dose is 45 μg/m^2.
